One assay concerns RSV A2. The experiment in a line: Western blot of total viral protein levels (pan-RSV antibody). Format: cell-based, Respiratory syncytial virus. Particulars: 24 h p.i. On the procedure: Prior studies in HEp-2 cells have shown that RSV mRNA and proteins can be detected 4–6 h p.i., while assembly is initiated roughly 10–12 h p.i., and mature viral filaments can be observed at the cell surface 16–18 h p.i.[26]–[28]. […] To verify this finding, a traditional plaque assay was performed to quantify infectious virus production from the supernatants of statin-treated RSV A2-infected HEp-2 cells. […] Lysates were also collected from RSV A2-infected HEp-2 cells (MOI 0.5) 24 h p.i. to probe viral protein expression by western blot. […] Changes to the expression and localization of the viral fusion glycoprotein (F) and nucleoprotein (N) were visualized by high-resolution confocal microscopy.
Box plots indicate the complete range (whiskers), interquartile range (box), and median (line) of measurements. […] Blots were stained using a pan-RSV polyclonal antibody (B65860G) that detects all viral antigens (see Supplementary Fig. 2). GAPDH controls were processed on a parallel blot with the same samples and protein load. Values are reported as means ± SEM (n = 3 cell lysates). d High-resolution confocal microscopy of the F (green) and N (magenta) proteins in RSV A2-infected HEp-2 cells (MOI 0.5). […] Scale bars = 20 µm. Statistics were calculated by a one-way ANOVA with a Dunnett’s multiple comparisons post hoc test (*P < 0.05, ***P < 0.001, ****P < 0.0001).
Supplementary Figure 2. Changes to viralprotein expression by statin or Rho GTPase inhibitor treatment. HEp-2 cells were infected with […]
post-viralexposure. Cell lysates were collected 24 h p.i.and viralprotein expression was probed using a pan-RSV polyclonal antibody (B65860G) which detects allviralantigens (n ≥2 cell lysates).GAPDH controlswere processed on parallelblots withthe same samples and protein load. […]
A general note: Immunoblotting shows a protein as a band on a membrane.

A further assay deals with RSV-GFP. The experiment in a line: RSV-GFP infection of HEp-2 cells, automated imaging, dose-response. The format is cell-based, Respiratory syncytial virus. Particulars: for EC50: HEp-2, RSV-GFP MOI 0.5, treated 2 h post-viral exposure. On the procedure: HEp-2 cells were seeded to black, flat, microclear-bottom 96-well plates (655096, Greiner Bio-One) at a density of 5000 cells per well and incubated at 37 °C/5% CO2 overnight. The following morning, cells were washed twice with serum-free EMEM and treated with RSV-GFP (MOI 0.5) in a minimal volume of serum-free media for 90 min under frequent agitation. Unbound virus was then removed and replaced with fresh serum-containing EMEM. All drug additions were performed 2 h post-viral exposure, unless otherwise stated. Nuclei were stained with Hoechst 33342 (H3570, Thermo Fisher Scientific) (at a final concentration of 1 µg/mL) 48 h p.i. and imaging was performed using the Cellomics ArrayScan VTI HCS Reader at ×10 magnification (SPARC BioCentre, The Hospital for Sick Children, Toronto, ON).
Automated quantification of infection rates from fluorescent images were performed in CellProfiler (v2.2.0)[86]. Major steps in the image analysis pipeline included: (1) background subtraction and smoothing, (2) segmentation of nuclei, (3) segmentation of GFP-fluorescent area, (4) object masking, and (5) measurement of nuclear number, size, and intensity. Infection rate was quantified from the ratio of nuclei within GFP-fluorescent area to the total number of nuclei (Fig. 1b). This method of analysis accounts for in vitro syncytium formation induced by RSV, whereby a single infected cell may arise from the fusion of multiple cells. Mean nuclear fluorescent intensity and size was quantified as a measure of cell viability. […]

Several values for one entry are separate records, joined by “and”; a condition that tells them apart may be missing. Identical values can stand only once. Counter-ions that a name gives are not always drawn.

The term EC50 denotes the concentration giving half of the maximal effect. Broadly, the inhibition is the drop in the measured response relative to a control, in per cent. As for `CC(C)c1c(C(=O)Nc2ccccc2)c(-c2ccccc2)c(-c2ccc(F)cc2)n1CC[C@@H](O)C[C@@H](O)CC(=O)O` [Atorvastatin, Atorvastatin calcium salt trihydrate], the “Total viral protein levels (GAPDH normalized)” value in the assay on RSV A2 (MOI 0.5, atorvastatin 3.5 uM, simvastatin 1.5 uM, one value per lysate) was 1.385 and 1.458 and 1.299. In the assay with RSV A2 (atorvastatin 3.5 µM, simvastatin 1.5 µM, EHT 1864 20.0 µM), the “total viral protein levels by western blot” value is listed as “decrease in total viral protein levels”. Further, the concentration for a half-maximal effect (EC50) was found to be 2560 nM in the assay on RSV-GFP and 2600 nM with RSV-GFP (human respiratory syncytial virus, HEp-2, 2 h). Moreover, in the assay on RSV-GFP (human respiratory syncytial virus, HEp-2, 48 h, read-out: RSV-GFP inhibition (%), log Conc (uM) -1, replicate values), the inhibition at 0.1 µM was 5.55%.
